# Assay results taken from ChEMBL document CHEMBL1201862, “PubChem BioAssay data set” (2004).
#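 Step 1: Grow cells in 96-well plates. Step 2: Expose to compound for 48 hours at 5 concentrations. Step 3: Interpolate endpoints linearly; if unreached, use highest concentration. GI50 is the concentration that inhibits growth by half.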 Activity calls are given as the source filed them. Rule as the data show it: active = GI50 up to about 1.1 µM and inactive = higher.
# Legend:
# Experiment in all cases: NCI tumour cell line growth inhibition, 48 h
# [1] = test system: OVCAR-8
# [2] = test system: HCT-116
# [3] = test system: OVCAR-4
# [4] = test system: RPMI-8226
# [5] = test system: SR
# [6] = test system: SNB-75
# [7] = test system: SNB-19
# [8] = test system: BT-549
# [9] = test system: SK-MEL-5
# [10] = test system: HT-29
# [11] = test system: SF-268
# [12] = test system: U-251
# [13] = test system: HOP-92
# [14] = test system: SK-MEL-2
# [15] = test system: SW-620
# [16] = test system: K562
# [17] = test system: MDA-MB-435
# [18] = test system: OVCAR-3
# [19] = test system: NCI-H522
# [20] = test system: SK-OV-3
# [21] = test system: SF-295
# [22] = test system: COLO 205
# [23] = test system: M14
# [24] = test system: TK-10
# [25] = test system: EKVX
# [26] = test system: SK-MEL-28
# [27] = test system: ACHN
# [28] = test system: MDA-N
# [29] = test system: CAKI-1
# [30] = test system: T47D
# [31] = test system: A498
# [32] = test system: DU-145
# [33] = test system: Malme-3M
# [34] = test system: MCF7
# [35] = test system: NCI-H460
# [36] = test system: KM12
# [37] = test system: NCI-H23
# [38] = test system: NCI-H226
# [39] = test system: NCI/ADR-RES
# [40] = test system: Hs-578T
# [41] = test system: SF-539
# [42] = test system: MDA-MB-231
# [43] = test system: UACC-257
# [44] = test system: IGROV-1
# [45] = test system: PC-3
# [46] = test system: SN12C
# [47] = test system: HCT-15
# [48] = test system: UACC-62
# [49] = test system: RXF 393
# [50] = test system: HOP-62
# [51] = test system: LOX IMVI
# [52] = test system: A549
# [53] = test system: MOLT-4
# [54] = test system: CCRF-CEM
# [55] = test system: HCC 2998
# [56] = test system: 786-0
# [57] = test system: OVCAR-5
# [58] = test system: HL-60
# [59] = test system: UO-31
structure (smiles),measurement,setting,value
Clc1ccc(/C=N/C23CC4CC(CC(C4)C2)C3)cc1Cl,GI50,[1],> 10 µM (inactive)
same,GI50,[2],> 10 µM (inactive)
same,GI50,[3],> 10 µM (inactive)
same,GI50,[4],> 10 µM (inactive)
same,GI50,[5],> 10 µM (inactive)
same,GI50,[6],> 10 µM (inactive)
same,GI50,[7],> 10 µM (inactive)
same,GI50,[8],> 10 µM (inactive)
same,GI50,[9],> 10 µM (inactive)
same,GI50,[10],> 10 µM (inactive)
same,GI50,[11],> 10 µM (inactive)
same,GI50,[12],> 10 µM (inactive)
same,GI50,[13],> 10 µM (inactive)
same,GI50,[14],> 10 µM (inactive)
same,GI50,[15],> 10 µM (inactive)
same,GI50,[16],> 10 µM (inactive)
same,GI50,[17],> 10 µM (inactive)
same,GI50,[18],> 10 µM (inactive)
same,GI50,[19],> 10 µM (inactive)
same,GI50,[20],> 10 µM (inactive)
same,GI50,[21],> 10 µM (inactive)
same,GI50,[22],> 10 µM (inactive)
same,GI50,[23],> 10 µM (inactive)
same,GI50,[24],> 10 µM (inactive)
same,GI50,[25],> 10 µM (inactive)
same,GI50,[26],> 10 µM (inactive)
same,GI50,[27],> 10 µM (inactive)
same,GI50,[28],> 10 µM (inactive)
same,GI50,[29],> 10 µM (inactive)
same,GI50,[30],> 10 µM (inactive)
same,GI50,[31],> 10 µM (inactive)
same,GI50,[32],> 10 µM (inactive)
same,GI50,[33],> 10 µM (inactive)
same,GI50,[34],> 10 µM (inactive)
same,GI50,[35],> 10 µM (inactive)
same,GI50,[36],> 10 µM (inactive)
same,GI50,[37],> 10 µM (inactive)
same,GI50,[38],> 10 µM (inactive)
same,GI50,[39],> 10 µM (inactive)
same,GI50,[40],> 10 µM (inactive)
same,GI50,[41],> 10 µM (inactive)
same,GI50,[42],> 10 µM (inactive)
same,GI50,[43],> 10 µM (inactive)
same,GI50,[44],> 10 µM (inactive)
same,GI50,[45],> 10 µM (inactive)
same,GI50,[46],> 10 µM (inactive)
same,GI50,[47],> 10 µM
same,GI50,[48],> 10 µM (inactive)
same,GI50,[49],> 10 µM (inactive)
same,GI50,[50],> 10 µM (inactive)
same,GI50,[51],> 10 µM (inactive)
same,GI50,[52],> 10 µM (inactive)
same,GI50,[53],> 10 µM (inactive)
same,GI50,[54],> 10 µM (inactive)
same,GI50,[55],> 10 µM (inactive)
same,GI50,[56],> 10 µM (inactive)
same,GI50,[57],> 10 µM (inactive)
same,GI50,[58],> 10 µM (inactive)
NC(=O)C(Nc1c(Cl)cccc1Cl)c1cc2cc(Br)ccc2nc1Cl (stereo unspecified),GI50,[1],80.7 µM (inactive)
same,GI50,[2],41.9 µM (inactive)
same,GI50,[3],46.3 µM (inactive)
same,GI50,[4],31.5 µM (inactive)
same,GI50,[5],12.2 µM (inactive)
same,GI50,[6],> 100 µM (inactive)
same,GI50,[7],74.3 µM (inactive)
same,GI50,[8],36.8 µM (inactive)
same,GI50,[9],37.5 µM (inactive)
same,GI50,[10],52.8 µM (inactive)
same,GI50,[11],49.8 µM (inactive)
same,GI50,[13],37.7 µM (inactive)
same,GI50,[14],29.6 µM (inactive)
same,GI50,[15],37.6 µM (inactive)
same,GI50,[16],29.4 µM (inactive)
same,GI50,[17],19.5 µM (inactive)
same,GI50,[18],52.8 µM (inactive)
same,GI50,[19],25.9 µM (inactive)
same,GI50,[20],> 100 µM (inactive)
same,GI50,[21],58.9 µM (inactive)
same,GI50,[22],24.4 µM (inactive)
same,GI50,[23],33 µM (inactive)
same,GI50,[24],34.6 µM (inactive)
same,GI50,[25],25.8 µM (inactive)
same,GI50,[26],> 100 µM (inactive)
same,GI50,[27],80.9 µM (inactive)
same,GI50,[28],27.6 µM (inactive)
same,GI50,[29],76.6 µM (inactive)
same,GI50,[30],44.4 µM (inactive)
same,GI50,[31],> 100 µM (inactive)
same,GI50,[32],> 100 µM (inactive)
same,GI50,[33],> 100 µM (inactive)
same,GI50,[34],30.1 µM (inactive)
same,GI50,[35],90.8 µM (inactive)
same,GI50,[36],38 µM (inactive)
same,GI50,[37],44.6 µM (inactive)
same,GI50,[38],45.5 µM (inactive)
same,GI50,[39],42.5 µM (inactive)
same,GI50,[40],85.3 µM (inactive)
same,GI50,[41],41.7 µM (inactive)
same,GI50,[42],44.1 µM (inactive)
same,GI50,[43],83.2 µM (inactive)
same,GI50,[44],28.1 µM (inactive)
same,GI50,[45],38.9 µM (inactive)
same,GI50,[46],63.1 µM (inactive)
same,GI50,[47],24.4 µM
same,GI50,[48],44.1 µM (inactive)
same,GI50,[49],41.7 µM (inactive)
same,GI50,[50],65.8 µM (inactive)
same,GI50,[51],59.6 µM (inactive)
same,GI50,[52],63.1 µM (inactive)
same,GI50,[53],20.7 µM (inactive)
same,GI50,[54],33.2 µM (inactive)
same,GI50,[55],44.8 µM (inactive)
same,GI50,[56],> 100 µM (inactive)
same,GI50,[57],> 100 µM (inactive)
same,GI50,[59],55 µM (inactive)
same,GI50,[58],28.4 µM (inactive)
